According to patent US7371889B2, “Chemical entities with multiple modes of anti-inflammatory action” (Sami Labs Limited, priority 2002, dated 2008):

Experiments:
[1] = tested on: T cells; assay: In vitro proliferation of T cells from draining lymph nodes after concanavalin A stimulation, tritiated thymidine incorporation; type: cell-based; details: T cells isolated day 22 from treated rats, thymidine uptake
Protocol: (§1) Hindpaw swelling (days 3, 7, 11, 14, 17, 21) and nociception (days 15 and 21) were measured. On day 22 rats were sacrificed, draining lymph nodes were removed and T cells isolated. In vitro proliferation of T cells following stimulation with concanavalin A (0.5-5 mcg/mL) was measured using a tritiated thymidine incorporation assay.
IL-2 receptor expression on T cells was measured by FACS analysis. […] T cells were isolated and characterized by FACS analysis.

[2] = tested on: Freund's adjuvant (FA) arthritis; assay: Freund's adjuvant (FA) arthritis in rats, nociception; type: in vivo; details: oral administration, dose giving the same extent of inhibition
Protocol: as §1, with “Freund's adjuvant (FA) arthritis was induced in rats by a single intraplantar injection into the right hindpaw of 100 microl of Mycobacterium butirricum (6 mg/mL). […] Hindpaw” for “Hindpaw”

Compound	order of activity, inhibition of T-cell proliferation [1]	dose at which anti-nociceptive [2]
CC(=O)O[C@@H]1CC[C@@]2(C)[C@@H](CC[C@]3(C)[C@@H]2C(=O)C=C2[C@@H]4[C@@H](C)[C@H](C)CC[C@]4(C)CC[C@]23C)[C@@]1(C)C(=O)O [AKBBA, 3-acetyl-11-keto-β-boswellic acid, reference compound]	SA-041>SA-040>N>1>AKBBA	
COc1ccc2cc([C@H](C)C(=O)O)ccc2c1 [N, Naproxen, reference compound]	SA-041>SA-040>N>1>AKBBA	
CC(=O)O[C@@H]1CC[C@@]2(C)[C@@H](CC[C@]3(C)[C@@H]2C(=O)C=C2[C@@H]4[C@@H](C)[C@H](C)CC[C@]4(C)CC[C@@]23C)[C@@]1(C)C(=O)OCOC(=O)C(C)c1ccc(CC(C)C)cc1 (some centres unmarked) [SA-040, AKBBA-Ibuprofen conjugate]	SA-041>SA-040>N>1>AKBBA	5.9 mg/kg
CC(=O)OC1CCC2(C)C(CCC3(C)C2C(=O)C=C2C4C(C)C(C)CCC4(C)CCC23C)C1(C)C(=O)OCCl (stereo not drawn) [Example 1, 3-Acetyl-11-keto-β-boswellic acid chloromethyl ester]	SA-041>SA-040>N>1>AKBBA	
